From US20160324174A1, “EDIBLE COATING FOR PRESERVING PIECES OF FRUIT, PRODUCTION METHOD AND APPLICATION THEREOF” (PRODUCTION AND INNOVATION ON EDIBLE COATINGS, S.L., priority 2014, published 2016)

Test system: pieces of apple (Golden delicious)
Test: Sensory evaluation of coated pieces of apple during 15 days storage at 4° C.
Conditions: for Hydration: scale 1 to 10, 10 = complete hydration of the product surface; for Texture: scale 1 to 10, 10 = firm crisp texture; for Color: sensory scale 1 to 10, 10 = total absence of browning
Protocol: Apples of the Golden delicious variety were used. They were washed on the surface and disinfected by immersion in a sodium hypochlorite (80 ppm) solution. After disinfection, the apples were cored and cut manually into […] (quarters), which were immediately coated. […] In any of the cases, the components were dissolved in water, by constant stirring, until completely dissolved, the temperature of both the water and of the solution being held at 6° C. until their use as coating. The pieces of apple were immersed for 1 minute in each of the solutions. In the case of the control sample, the pieces of apple were immersed in cold water for the same period of time. After this, the samples were drained for 1 minute in order to remove any excess coating that might remain on the surface of the fruit. Finally, the fruit was manually packaged in plastic tubs (PET), without the use of a modified atmosphere, and stored at 4° C. for 15 days. […] The scale of evaluation was from 1 to 10, 10 being the highest mark awarded to the parameter evaluated, namely, a product with the same quality as the freshly cut fruit, and 1 being a very bad quality product (rejectable).

[1] = apple pieces, day 1 in storage at 4° C.
[2] = apple pieces, day 8 in storage at 4° C.
[3] = apple pieces, day 15 in storage at 4° C.

With “calcium ascorbate [Calcium ascorbate (6% p/p)]” the “appearance of first symptoms of dehydration” value (apple pieces in storage at 4° C.) was “from the first week of storage”, the “maintenance of the original color of the apple” value (apple pieces, 15 days storage at 4° C.) was “throughout almost all of the period of storage” and the General appearance [1] was “Good”. It also gave a Hydration [1] of 10, a Texture [1] of 10 and a Color [1] of 10. For the same substance, the General appearance [2] was “Dehydrated”, the Hydration [2] was 5 and the Texture [2] was 8. The Color [2] was 9, the General appearance [3] was “Very dehydrated,” and the Hydration [3] was 4. For the same substance, the Texture [3] was 7 and the Color [3] was 8.
